According to US9738932B2, “Biomarkers for cardiovascular side-effects induced by cox-2 inhibitory compounds” (FIRALIS SAS, priority 2005, dated 2017):

Tested on: mRNA expression in cardiovascular tissues
Assay: Affymetrix GeneChip mRNA expression profiling of monkey tissues (iliac vein, pulmonary vein, aorta, carotid artery, heart) after two-week oral-gavage treatment
Conditions: iliac vein
[1] = group average (Vioxx without A60055)
[2] = group avg, Vioxx without A60055

`Cc1ccc(Nc2c(F)cccc2Cl)c(CC(=O)O)c1` [COX189, Lumiracoxib] was tested, and the “ACE (209749_s_at) mRNA expression, Avg fold changes vs control” value [1] was 0.8 fold, the “B2M (216231_s_at) mRNA expression, Avg fold changes vs control” value [1] was 1.1 fold and the “BCL6 (215990_s_at) mRNA expression, Avg fold changes vs control” value [1] was 1.4 fold. For the same molecule, the “BTN2A2 (205298_s_at) mRNA expression, Avg fold changes vs control” value [1] was 1.3 fold, the “CCR1 (205098_at) mRNA expression, Avg fold changes vs control” value [1] was 0.8 fold and the “CD2 (205831_at) mRNA expression, Avg fold changes vs control” value [1] was 1.1 fold. The “CD48 (204118_at) mRNA expression, Avg fold changes vs control” value [1] was 1.0 fold, the “CD53 (203416_at) mRNA expression, Avg fold changes vs control” value [1] was 1.0 fold and the “CDC2 (210559_s_at) mRNA expression, Avg fold changes vs control” value [1] was 1.0 fold. For the same molecule, the “CYBB (203922_s_at) mRNA expression, Avg fold changes vs control” value [1] was 0.9 fold, the “EMP3 (203729_at) mRNA expression, Avg fold changes vs control” value [1] was 0.8 fold and the “FCER1G (204232_at) mRNA expression, Avg fold changes vs control” value [1] was 1.0 fold. The “FCGR2A (203561_at) mRNA expression, Avg fold changes vs control” value [1] was 0.8 fold, the “FCGRT (218831_s_at) mRNA expression, Avg fold changes vs control” value [1] was 1.0 fold and the “FKBP11 (219117_s_at) mRNA expression, Avg fold changes vs control” value [1] was 0.7 fold. The “FKBP11 (219118_at) mRNA expression, Avg fold changes vs control” value [1] was 0.8 fold, the “GP6 (220336_s_at) mRNA expression, Avg fold changes vs control” value [1] was 1.2 fold and the “HCLS1 (202957_at) mRNA expression, Avg fold changes vs control” value [1] was 1.0 fold. The “HEM1 (209734_at) mRNA expression, Avg fold changes vs control” value [1] was 1.0 fold, the “HLA-A (210514_x_at) mRNA expression, Avg fold changes vs control” value [1] was 1.2 fold and the “HLA-A (213932_x_at) mRNA expression, Avg fold changes vs control” value [1] was 1.2 fold. For the same molecule, the “HLA-C (211799_x_at) mRNA expression, Avg fold changes vs control” value [1] was 1.5 fold, the “HLA-E (200904_at) mRNA expression, Avg fold changes vs control” value [1] was 1.0 fold and the “HLA-F (221978_at) mRNA expression, Avg fold changes vs control” value [1] was 1.4 fold. For the same molecule, the “ICAM1 (202637_s_at) mRNA expression, Avg fold changes vs control” value [1] was 1.0 fold, the “IL13RA1 (210904_s_at) mRNA expression, Avg fold changes vs control” value [1] was 1.1 fold and the “PIK3CD (203879_at) mRNA expression, Avg fold changes vs control” value [1] was 1.1 fold. For the same molecule, the “PRKCBP1 (209048_s_at) mRNA expression, Avg fold changes vs control” value [1] was 1.1 fold, the “PRKCBP1 (209049_s_at) mRNA expression, Avg fold changes vs control” value [1] was 0.9 fold and the “PTPN7 (204852_s_at) mRNA expression, Avg fold changes vs control” value [1] was 1.0 fold. The “SIGIRR (52940_at) mRNA expression, Avg fold changes vs control” value [1] was 0.9 fold, the “STAT1 (200887_s_at) mRNA expression, Avg fold changes vs control” value [1] was 1.3 fold and the “STAT1 (AFFX-HUMISGF3A/M97935_3_at) mRNA expression, Avg fold changes vs control” value [1] was 1.3 fold. For the same molecule, the “STAT3 (208992_s_at) mRNA expression, Avg fold changes vs control” value [1] was 1.0 fold, the “TCIRG1 (204158_s_at) mRNA expression, Avg fold changes vs control” value [1] was 1.0 fold and the “THY1 (213869_x_at) mRNA expression, Avg fold changes vs control” value [1] was 0.9 fold. The “TMPO (209753_s_at) mRNA expression, Avg fold changes vs control” value [1] was 0.9 fold, the “TMSB10 (217733_s_at) mRNA expression, Avg fold changes vs control” value [1] was 1.1 fold and the “TNFRSF21 (218856_at) mRNA expression, Avg fold changes vs control” value [1] was 1.1 fold. The “TRB@ (210915_x_at) mRNA expression, Avg fold changes vs control” value [1] was 1.3 fold, the “TRB@ (213193_x_at) mRNA expression, Avg fold changes vs control” value [1] was 1.2 fold and the “209813_x_at avg fold change vs control” value [2] was 1.0 fold. For the same molecule, the “AIF1 (209901_x_at) avg fold change vs control” value [2] was 0.7 fold, the “AIF1 (213095_x_at) avg fold change vs control” value [2] was 0.5 fold and the “B2M (201891_s_at) avg fold change vs control” value [2] was 1.0 fold. For the same molecule, the “BCL3 (204908_s_at) avg fold change vs control” value [2] was 1.0 fold, the “BTN3A1 (207485_x_at) avg fold change vs control” value [2] was 2.1 fold and the “BTN3A3 (38241_at) avg fold change vs control” value [2] was 1.0 fold. The “BTN3A3 (204820_s_at) avg fold change vs control” value [2] was 1.1 fold, the “BTN3A3 (204821_at) avg fold change vs control” value [2] was 1.5 fold and the “C1QA (218232_at) avg fold change vs control” value [2] was 1.0 fold. The “C1QB (202953_at) avg fold change vs control” value [2] was 1.0 fold, the “C1R (212067_s_at) avg fold change vs control” value [2] was 1.0 fold and the “C1S (208747_s_at) avg fold change vs control” value [2] was 1.0 fold. The “C2 (203052_at) avg fold change vs control” value [2] was 1.1 fold, the “C4A (208451_s_at) avg fold change vs control” value [2] was 0.9 fold and the “CASP1 (209970_x_at) avg fold change vs control” value [2] was 1.1 fold. The “CASP1 (211367_s_at) avg fold change vs control” value [2] was 1.2 fold, the “CCL2 (216598_s_at) avg fold change vs control” value [2] was 1.6 fold and the “CCL3 (205114_s_at) avg fold change vs control” value [2] was 0.9 fold. The “CCL5 (1405_i_at) avg fold change vs control” value [2] was 0.9 fold, the “CCL8 (214038_at) avg fold change vs control” value [2] was 1.7 fold and the “CCL18 (209924_at) avg fold change vs control” value [2] was 2.3 fold. For the same molecule, the “CCL19 (210072_at) avg fold change vs control” value [2] was 1.4 fold, the “CCNB2 (202705_at) avg fold change vs control” value [2] was 1.4 fold and the “CD3D (213539_at) avg fold change vs control” value [2] was 1.7 fold. The “CD8A (205758_at) avg fold change vs control” value [2] was 1.2 fold, the “CD14 (201743_at) avg fold change vs control” value [2] was 0.7 fold and the “CD74 (209619_at) avg fold change vs control” value [2] was 1.0 fold. For the same molecule, the “CLU (208791_at) avg fold change vs control” value [2] was 1.0 fold, the “CMAH (210571_s_at) avg fold change vs control” value [2] was 1.1 fold and the “CTSC (201487_at) avg fold change vs control” value [2] was 1.1 fold. The “CTSK (202450_s_at) avg fold change vs control” value [2] was 1.2 fold, the “CTSS (202902_s_at) avg fold change vs control” value [2] was 1.1 fold and the “CX3CR1 (205898_at) avg fold change vs control” value [2] was 1.2 fold. For the same molecule, the “CXCL9 (203915_at) avg fold change vs control” value [2] was 1.7 fold, the “CXCL10 (204533_at) avg fold change vs control” value [2] was 1.4 fold and the “CXCL11 (210163_at) avg fold change vs control” value [2] was 2.6 fold. For the same molecule, the “CXCL11 (211122_s_at) avg fold change vs control” value [2] was 2.3 fold, the “CXCL12 (209687_at) avg fold change vs control” value [2] was 0.8 fold and the “CYBA (203028_s_at) avg fold change vs control” value [2] was 1.2 fold. The “CYBB (203923_s_at) avg fold change vs control” value [2] was 1.0 fold, the “CYP1B1 (202436_s_at) avg fold change vs control” value [2] was 1.3 fold and the “CYP3A5 (214234_s_at) avg fold change vs control” value [2] was 1.3 fold. For the same molecule, the “CYP11B1 (214630_at) avg fold change vs control” value [2] was 1.0 fold, the “DUSP6 (208893_s_at) avg fold change vs control” value [2] was 0.9 fold and the “ECGF1 (204858_s_at) avg fold change vs control” value [2] was 1.7 fold. For the same molecule, the “ECM1 (209365_s_at) avg fold change vs control” value [2] was 1.0 fold, the “F2RL1 (206429_at) avg fold change vs control” value [2] was 1.8 fold and the “F13A1 (203305_at) avg fold change vs control” value [2] was 1.1 fold. For the same molecule, the “FCGR1A (214511_x_at) avg fold change vs control” value [2] was 1.0 fold, the “FCGR3A (204006_s_at) avg fold change vs control” value [2] was 1.0 fold and the “G1P2 (205483_s_at) avg fold change vs control” value [2] was 1.5 fold. The “GZMB (210164_at) avg fold change vs control” value [2] was 0.8 fold, the “HCA127 (220040_x_at) avg fold change vs control” value [2] was 0.9 fold and the “HCK (208018_s_at) avg fold change vs control” value [2] was 1.1 fold. For the same molecule, the “HFE (210864_x_at) avg fold change vs control” value [2] was 1.3 fold.
